Drawing on PubChem BioAssay (NCI), this text covers TGI for 13 molecules.

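Five concentrations, 48 hours, 96-well plates. At the TGI there is no net growth.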 Bounds are passed on as bounds.

Among the test systems are OVCAR-3 ovarian; RXF 393 renal; MCF7 breast; KM12 colon; LOX IMVI melanoma; K-562 leukemia; T-47D breast; ACHN renal; HCT-116 colon; NCI/ADR-RES ovarian.
What all share (assay): NCI anticancer screen, dose series, 48 h

Consider `Cc1csc2c1-n1cccc1C2=O`, for which the TGI in the assay on OVCAR-3 ovarian, in the assay with RXF 393 renal, with MCF7 breast, in the assay on KM12 colon, in the assay on LOX IMVI melanoma and in the assay with K-562 leukemia was above 100 µM throughout. The TGI in the assay on T-47D breast, with ACHN renal, with HCT-116 colon and with NCI/ADR-RES ovarian was above 100 µM each time.
`CCOC(=O)C(Cc1ccc(OC(=O)OC(C)(C)C)cc1)NC(=O)OC(C)(C)C` (stereo not given): the TGI in the assay with OVCAR-3 ovarian, in the assay on RXF 393 renal, in the assay on MCF7 breast, with KM12 colon, in the assay with LOX IMVI melanoma and with K-562 leukemia was above 100 µM each time. The TGI in the assay on T-47D breast was 70.7 µM; with ACHN renal it was above 100 µM; with HCT-116 colon, above 100 µM; with NCI/ADR-RES ovarian it was above 100 µM.
Consider `CC1CC/C(=C\c2ccc(F)cc2)C(=O)/C1=C/c1ccc(F)cc1` (stereo not given), for which the TGI in the assay with OVCAR-3 ovarian was 28.1 µM; with RXF 393 renal, 9.98 µM; in the assay with MCF7 breast it was 16.6 µM; with KM12 colon, 14.5 µM; in the assay on LOX IMVI melanoma it was 7 µM; in the assay on K-562 leukemia, above 100 µM. For the same molecule, the TGI in the assay on T-47D breast was found to be 21 µM; with ACHN renal it was 13.6 µM; with HCT-116 colon, 5.4 µM; in the assay on NCI/ADR-RES ovarian, 5.75 µM.
`Cc1c(N=Nc2ccccc2)c(C)n(C2OC(CO)C(O)C(O)C2O)c(=S)c1C#N` (stereo not given): the TGI is 62.9 µM in the assay on OVCAR-3 ovarian; above 100 µM with RXF 393 renal; above 100 µM in the assay on MCF7 breast; above 100 µM in the assay with KM12 colon; 54.8 µM in the assay on LOX IMVI melanoma; above 100 µM in the assay with K-562 leukemia. For the same molecule, the TGI in the assay with T-47D breast was 95.8 µM; in the assay with ACHN renal it was above 100 µM; in the assay on HCT-116 colon, 46.2 µM; in the assay with NCI/ADR-RES ovarian, above 100 µM.
With `COC1=CC2(CC(OC)=C1OC)OC21COc2ccccc2C1=O` (stereo not given), the TGI with OVCAR-3 ovarian, in the assay on RXF 393 renal, in the assay with MCF7 breast, with KM12 colon, in the assay on LOX IMVI melanoma and in the assay on K-562 leukemia was above 100 µM in each case. In addition, the TGI in the assay on T-47D breast, in the assay with ACHN renal, in the assay on HCT-116 colon and in the assay on NCI/ADR-RES ovarian was above 100 µM in each case.
With `COc1cc2c3c(n(C)c(=O)c2cc1OC)-c1cc2c(cc1/C3=C\CCCI)OCO2`, the TGI in the assay on OVCAR-3 ovarian, in the assay with RXF 393 renal, in the assay with MCF7 breast, with KM12 colon, in the assay with LOX IMVI melanoma and in the assay with K-562 leukemia was above 100 µM each time. For the same molecule, the TGI is above 95.4 µM with T-47D breast, above 85.3 µM with ACHN renal, above 100 µM with HCT-116 colon and above 100 µM in the assay on NCI/ADR-RES ovarian.
For `CCCCCCCCCCCCCCC(O)C[N+](C)(CCO)CCO` (stereo not given), the TGI with OVCAR-3 ovarian is 12.1 µM; in the assay with RXF 393 renal it was 4.36 µM; with MCF7 breast it was 36.5 µM; in the assay with KM12 colon, 4.23 µM; in the assay on LOX IMVI melanoma it was 4.66 µM; with K-562 leukemia, above 38.1 µM. Besides, the TGI with T-47D breast was 30.6 µM; in the assay with ACHN renal, 21.7 µM; in the assay on HCT-116 colon, 23.8 µM; with NCI/ADR-RES ovarian it was 49 µM.
Consider `CCOC(=O)c1nc2ccc(C(F)(F)F)cc2nc1Nc1ccc(Cl)c(Cl)c1`, for which the TGI with OVCAR-3 ovarian, in the assay on RXF 393 renal, with MCF7 breast, with KM12 colon, with LOX IMVI melanoma and in the assay on K-562 leukemia was above 100 µM in each case. For the same molecule, the TGI in the assay with T-47D breast, in the assay with ACHN renal, with HCT-116 colon and with NCI/ADR-RES ovarian was above 100 µM in each case.
For the molecule `Cn1ncc2c(Cl)ncnc21`, the TGI with OVCAR-3 ovarian, with RXF 393 renal, in the assay with MCF7 breast, in the assay with KM12 colon, with LOX IMVI melanoma and in the assay with K-562 leukemia was above 100 µM in each case. In addition, the TGI in the assay with T-47D breast, in the assay with ACHN renal, with HCT-116 colon and in the assay with NCI/ADR-RES ovarian was above 100 µM each time.
`COC(=O)c1ccc(C)cc1CC1Cc2ccc(C)cc2C1=O` (stereo not given): the TGI with OVCAR-3 ovarian is 25.3 µM; with RXF 393 renal, 28.8 µM; with MCF7 breast it was 19.9 µM; in the assay with KM12 colon, 22.1 µM; in the assay on LOX IMVI melanoma it was 14.8 µM; with K-562 leukemia, 10.5 µM. In addition, the TGI with T-47D breast stood at 63 µM; in the assay with ACHN renal it was 80.8 µM; in the assay on HCT-116 colon, 19 µM; with NCI/ADR-RES ovarian, 18.3 µM.
Turning to `O=C1C(Cl)=C(N(C(=O)c2ccccc2)C(=O)c2ccccc2)C(=O)c2ccccc21`, the TGI was 22.9 µM in the assay on OVCAR-3 ovarian; 15.8 µM in the assay with RXF 393 renal; 24 µM with MCF7 breast; 15.7 µM in the assay on KM12 colon; above 100 µM in the assay with LOX IMVI melanoma; 20.6 µM in the assay on K-562 leukemia. Moreover, the TGI in the assay on T-47D breast is 32.3 µM; in the assay on ACHN renal it was 13.9 µM; with HCT-116 colon, 17.6 µM; in the assay with NCI/ADR-RES ovarian, above 100 µM.
With `O=c1ccn(C2OC(CO)C(O)C2F)c(=O)n1Cc1ccccc1` (stereo not given), the TGI in the assay on OVCAR-3 ovarian, with RXF 393 renal, in the assay with MCF7 breast, in the assay with KM12 colon, in the assay on LOX IMVI melanoma and with K-562 leukemia was above 100 µM throughout. Further, the TGI in the assay on T-47D breast, in the assay on ACHN renal, with HCT-116 colon and in the assay on NCI/ADR-RES ovarian was above 100 µM each time.
Turning to `CC(C)=CCc1[nH]c2ccccc2c1C1=C(O)C(=O)C(c2c(CC=C(C)C)[nH]c3ccccc23)=C(O)C1=O`, the TGI with OVCAR-3 ovarian was found to be 3.92 µM; in the assay with RXF 393 renal it was 8.17 µM; in the assay on MCF7 breast it was 9.4 µM; in the assay on KM12 colon, 2.82 µM; in the assay on LOX IMVI melanoma, 4.22 µM; in the assay on K-562 leukemia it was 6.31 µM. Besides, the TGI with T-47D breast amounted to 25 µM; in the assay with ACHN renal it was 3.95 µM; in the assay with HCT-116 colon, 3.78 µM; with NCI/ADR-RES ovarian it was 17.3 µM.
